Laboratory results as given in US5614562A, “Method of treating drug resistant tumor cells using organoselenones” (The University of Sourthern California, priority 1992, dated 1997).
pIC50: −log10 of the molar value. Converted amounts (≈) assume the structure as drawn. Like-named read-outs stand apart in the source and are kept apart here.

Legend:
L1210/0 [1] = test: Cytotoxicity, 48-hr exposure of L1210/0 leukemia cells; type: cell-based, murine; details: 48-hr exposure, read-out: IC50 L1210/0
From the text: (§1) Murine L1210 leukemia cells sensitive (L1210/0) and resistant (L1210/L-PAM)to L-phenylalanine mustard were obtained that are adaptable to either in vitro or in vivo passage.
(§2) Broad resistance of the L1210/L-PAM cell line is shown by the approximately 4-fold and 9-fold increases in IC50, compared to L1210/0, for L-PAM and mechlorethamine, respectively (Comparative Examples 3 and 4). […].

L1210/L-PAM [2] = test: Cytotoxicity, 48-hr exposure of L-PAM resistant L1210/L-PAM leukemia cells; type: cell-based, murine; details: 48-hr exposure; for pIC50: read-out: IC50 L1210/L-PAM
From the text: as §1, §2

[3] = methanol, 35° C.; cited from earlier work
HCT/VP35 = test: In vitro cytotoxicity, VP16 resistant HCT/VP35 human colon carcinoma; type: cell-based; details: for IC50: Homo sapiens, HCT/VP35, VP16 resistant, data provided by Bristol-Myers Laboratories; for ratio of IC50 values HCT/VP35 vs HCT116: IC50 divided by IC50 for HCT116; for fold increase in IC50, HCT/VP35: vs HCT116
From the text: | HCT/VP35 human colon, VP16 resistant

HCT/VM46 = test: In vitro cytotoxicity, VM26 resistant HCT/VM46 human colon carcinoma; type: cell-based; details: for IC50: Homo sapiens, VM26 resistant, data provided by Bristol-Myers Laboratories; for ratio of IC50 values HCT/VM46 vs HCT116: IC50 divided by IC50 for HCT116; for fold increase in IC50, HCT/VM46: vs HCT116
From the text: | HCT/VM46 human colon, VM26 resistant

HCT116 = test: In vitro cytotoxicity, HCT116 human colon carcinoma; type: cell-based; details: Homo sapiens, HCT-116; data provided by Bristol-Myers Laboratories
From the text: ^b Cell lines: HCT116 human colon (sensitive to VP16 and VM26)

[4] = tested on: HT29 human colon carcinoma cells; test: Growth inhibition cytotoxicity against HT29 human colon carcinoma cells (MER(+)); type: cell-based; details: HT-29
From the text: (Example 15) These cells are very high in the alkyltransferase enzyme for repair of DNA guanine O6-alkyl products, and therefore are considered strongly MER(+) in phenotype. Levels of this enzyme in HT29 cells have averaged about 0.5 pmol/mg protein in recent studies (K. Chan, et al., unpublished). […] Thus, the lack of cross-resistance to ethyleneimines by the present invention of 2-chloroethyl aryl selenones is not associated with resistence mediated by the alkyltransferase repair enzyme.

L1210/L-PAM [5] = details: L1210/L-PAM line; cited from earlier work
L1210/0 [6] = details: cited from earlier work

## CS(=O)(=O)OCCC[Se]c1ccccc1 [PhSeCH2 CH2 CH2 OMs]
L1210/0 [1]; Mus musculus, L1210/0
  pIC50: 4.28
L1210/L-PAM [2]
  Ratio of IC50s (L1210/L-PAM vs L1210/0): 1.9
L1210/L-PAM [2]; Mus musculus, L1210/LPAM
  pIC50: 4.00

## C[Se](=O)(=O)c1ccccc1 [PhSeO2 CH3]
[3]
  reactivity in methylation of dimethylsulfide: three times as reactive as methyl iodide

## COc1cc([C@@H]2c3cc4c(cc3[C@@H](O[C@@H]3O[C@@H]5CO[C@@H](c6cccs6)O[C@H]5[C@H](O)[C@H]3O)[C@H]3COC(=O)[C@H]23)OCO4)cc(OC)c1O [VM-26 (Teniposide), Teniposide]
HCT/VP35
  IC50: 0.53 µg/mL (≈ 0.807 µM)
  ratio of IC50 values HCT/VP35 vs HCT116: 15.1
  fold increase in IC50, HCT/VP35: 15.1 fold
HCT/VM46
  IC50: 0.17 µg/mL (≈ 0.259 µM)
  ratio of IC50 values HCT/VM46 vs HCT116: 4.9
  fold increase in IC50, HCT/VM46: 4.9 fold
HCT116
  IC50: 0.035 µg/mL (≈ 0.0533 µM)

## COc1cc([C@@H]2c3cc4c(cc3[C@@H](O[C@@H]3O[C@@H]5CO[C@@H](C)O[C@H]5[C@H](O)[C@H]3O)[C@H]3COC(=O)[C@H]23)OCO4)cc(OC)c1O [VP-16 (Etoposide), Etoposide]
HCT/VP35
  IC50: 4.62 µg/mL (≈ 7.85 µM)
  ratio of IC50 values HCT/VP35 vs HCT116: 10.0
  fold increase in IC50, HCT/VP35: 10.0 fold
HCT/VM46
  IC50: 1.48 µg/mL (≈ 2.51 µM)
  ratio of IC50 values HCT/VM46 vs HCT116: 3.2
  fold increase in IC50, HCT/VM46: 3.2 fold
HCT116
  IC50: 0.46 µg/mL (≈ 0.782 µM)

## NC(=O)N(CCCl)N=O [chloroethylnitrosourea (CNU), chloroethylnitrosourea, reference compound]
[4]
  pIC50: 3.60

## O=P1(N(CCCl)CCCl)NCCCO1 (centres unmarked) [cyclophosphamide]
L1210/L-PAM [5]
  in vivo resistance (log cell kill differential): > 2 log
L1210/0 [6]
  sensitivity of parent L1210/0 line: sensitive

## S=P(N1CC1)(N1CC1)N1CC1 [thioTEPA]
L1210/L-PAM [5]
  in vivo resistance (log cell kill differential): 4 log
L1210/0 [6]
  sensitivity of parent L1210/0 line: sensitive

## (CH3)2 NCSeCH2 CH2 Cl
L1210/0 [1]
  pIC50: 4.74
L1210/L-PAM [2]
  Ratio of IC50s (L1210/L-PAM vs L1210/0): 1.7
  pIC50: 4.52
